Experiment [1] has as its system AGS. Put plainly: Induction of apoptosis in TRAIL-resistant human AGS cells assessed as decrease in cell viability at 2 uM after 24 hrs in presence of TRAIL (reference value: 9%). Type of experiment: functional.
Experiment [2] concerns AGS. Put plainly: Induction of apoptosis in TRAIL-resistant human AGS cells assessed as decrease in cell viability at 5 uM after 24 hrs in presence of TRAIL (reference value: 9%). Format: functional.
In experiment [3] the test system is AGS. Put plainly: Induction of apoptosis in TRAIL-resistant human AGS cells assessed as decrease in cell viability at 20 uM after 24 hrs in presence of TRAIL (reference value: 9%). Format: functional.
Experiment [4] has as its system AGS. Put plainly: Induction of apoptosis in TRAIL-resistant human AGS cells assessed as decrease in cell viability at 40 uM after 24 hrs in presence of TRAIL (reference value: 9%). Format: functional.
The test system of experiment [5] is AGS. Put plainly: Induction of apoptosis in TRAIL-resistant human AGS cells assessed as decrease in cell viability at 7.5 uM after 24 hrs in presence of TRAIL (reference value: 9%). Type of experiment: functional.
Experiment [6] concerns AGS. The experiment in a line: Induction of apoptosis in TRAIL-resistant human AGS cells assessed as decrease in cell viability at 10 uM after 24 hrs in presence of TRAIL (reference value: 9%). Type of experiment: functional.
In experiment [7] the test system is AGS. The experiment in a line: Induction of apoptosis in TRAIL-resistant human AGS cells assessed as fold increase in caspase 3/7 at 5 uM after 24 hrs by Caspase-Glo 3/7 assay kit in presence of TRAIL. Format: functional.
The test system of experiment [8] is AGS. The experiment in a line: Induction of apoptosis in TRAIL-resistant human AGS cells assessed as ROS-mediated increase in death receptor 5 protein level at 3 uM after 6 hrs pretreated with NAC by Western blotting analysis. Format: functional, cell-based.
Experiment [9] concerns AGS. Put plainly: Induction of apoptosis in TRAIL-resistant human AGS cells assessed as fold increase in caspase 3/7 at 3 uM after 24 hrs by Caspase-Glo 3/7 assay kit. Format: functional.
The test system of experiment [10] is AGS. Put plainly: Induction of apoptosis in TRAIL-resistant human AGS cells assessed as population of apoptotic cells after 6 hrs by annexin-V-FLOUS/ propidium iodide staining based flow cytometry in presence of pan-caspase inhibitor z-VAD-FMK. Type of experiment: functional. On the technique in general: A flow cytometer gives signals particle by particle.
The test system of experiment [11] is AGS. The experiment in a line: Induction of apoptosis in TRAIL-resistant human AGS cells assessed as decrease in cell viability at 3 uM after 24 hrs in presence of TRAIL (reference value: 9%). Format: functional.
For experiment [12], the system named is AGS. The experiment in a line: Induction of apoptosis in TRAIL-resistant human AGS cells assessed as population of apoptotic cells after 6 hrs by annexin-V-FLOUS/ propidium iodide staining based flow cytometry in presence of TRAIL. Type of experiment: functional.
Experiment [13] relates to AGS. The experiment in a line: Induction of apoptosis in TRAIL-resistant human AGS cells assessed as fold increase in caspase 3/7 at 5 uM after 24 hrs by Caspase-Glo 3/7 assay kit. Type of experiment: functional.
Experiment [14] relates to AGS. Put plainly: Induction of apoptosis in TRAIL-resistant human AGS cells assessed as population of apoptotic cells after 6 hrs by annexin-V-FLOUS/ propidium iodide staining based flow cytometry. Type of experiment: functional.
Experiment [15] deals with AGS. The experiment in a line: Induction of mitochondrial membrane depolarization in human AGS cells assessed as depolarized cells after 24 hrs by JC-1 staining-based flow cytometric analysis (reference value: 27.1%). Type of experiment: functional.
Experiment [16] concerns AGS. The experiment in a line: Induction of apoptosis in TRAIL-resistant human AGS cells assessed as increase in death receptor 5 protein level at 3 uM after 6 hrs by Western blotting analysis. Type of experiment: functional. (A western blot detects proteins with antibodies after separation by electrophoresis.)
Experiment [17] has as its system AGS. Put plainly: Induction of apoptosis in TRAIL-resistant human AGS cells assessed as increase in p53 protein level at 3 uM after 6 hrs by Western blotting analysis. Type of experiment: functional, cell-based.
For experiment [18], the system named is AGS. Put plainly: Induction of apoptosis in TRAIL-resistant human AGS cells assessed as fold increase in caspase 3/7 at 3 uM after 24 hrs by Caspase-Glo 3/7 assay kit in presence of TRAIL. Type of experiment: functional.
Experiment [19] concerns AGS. The experiment in a line: Induction of apoptosis in TRAIL-resistant human AGS cells assessed as decrease in cell viability at 17.5 uM after 24 hrs in presence of TRAIL (reference value: 9%). Format: functional.

Active and inactive are the calls of the source. The rule behind the calls is not given here.

This note sets out measurements from ChEMBL document CHEMBL3393038, “Prenylated flavonoids and resveratrol derivatives isolated from Artocarpus communis with the ability to overcome TRAIL resistance” (2015).

Take `CC(C)=CCc1c2c(c3oc(-c4cc(O)c(O)cc4O)c(CC=C(C)C)c(=O)c3c1O)C=CC(C)(C)O2`: in experiment [1], the Activity stood at 46%. `CC(C)=CCC/C(C)=C/Cc1c(O)c(CC=C(C)C)c(O)c2c(=O)c(CC=C(C)C)c(-c3cc(O)c(O)cc3O)oc12`: the Activity in [2] was 30%. With `CC(C)=CCc1cc(/C=C/c2cc(O)cc(O)c2)cc(CC=C(C)C)c1O`, the Activity in experiment [3] is 25%.

For the compound `COc1c(/C=C/c2cc(O)cc(O)c2)cc(CC=C(C)C)c(O)c1CC=C(C)C`, in experiment [4], the Activity was 40%. On to `CC(C)=CCc1c(O)c(CC=C(C)C)c2oc(-c3cc(O)c(O)cc3O)c(CC=C(C)C)c(=O)c2c1O`, for which, in experiment [5], the Activity was determined as 30%. `C=C(C)[C@H]1Cc2c(oc3c4c(cc(O)c3c2=O)OC(C)(C)C=C4)-c2c(O)cc(O)c(O)c21` [ARTOBILOXANTHONE]: the Activity in experiment [6] was found to be 32%. Consider `CC(C)=CCc1c(-c2cc(O)c(O)cc2O)oc2c3c(cc(O)c2c1=O)OC(C)(C)C=C3` [ARTONIN E], for which the “fold change (FC)” value was 34.3 in [7]; 3.7 in [9]; 11.1 in experiment [13]; 1.9 in [16]; 12.2 in experiment [18]. In addition, the result in experiment [8] was inactive. For the same compound, the “inhibition (INH)” value in experiment [10] came out at 2.9%; in [12], 32.7%; in experiment [14], 3.6%. Moreover, the Activity was 44% in [11] and 58.4% in experiment [15]. The result in experiment [17] was Active. As to `C=C(C)[C@H]1Cc2c(oc3c(CC=C(C)C)c(O)c(CC=C(C)C)c(O)c3c2=O)-c2c(O)cc(O)c(O)c21` [ARTORIGIDIN A], in [5], the Activity is 26%. In the case of `CC(C)=CCc1c(-c2ccc(O)cc2O)oc2cc3c(c(O)c2c1=O)C=CC(C)(C)O3` [CUDRAFLAVONE B], the Activity in experiment [4] amounted to 27%.

As for `CC(C)=CCc1c(-c2cc(O)c(O)cc2O)oc2c(CC=C(C)C)c3c(c(O)c2c1=O)C=CC(C)(C)O3` [HETEROPHYLLIN], in [1], the Activity was 31%. On to `O=c1cc(-c2ccc(O)c(O)c2)oc2cc(O)cc(O)c12` [LUTEOLIN], for which, in experiment [19], the Activity turned out to be 9%. For `CC(C)=CCc1c(-c2ccc(O)cc2O)oc2c3c(cc(O)c2c1=O)OC(C)(C)C=C3` [MORUSIN], the Activity in experiment [4] is on record as 25%.
